According to patent publication US7732618B2, “Benzimidazole acetic acids exhibiting CRTH2 receptor antagonism and uses thereof” (Wyeth, priority 2004, dated 2010):

biological target: T1, human CRTH2 (Homo sapiens, UniProt Q9Y5Y4); experiment: CRTH-2 binding assay (scintillation proximity assay, inhibition of 3H-PGD2 binding); design: expressed in transfected cells; host or cells: 293EBNA-hCRTH2 cells (membrane preparation); conditions: membranes from 293EBNA-hCRTH2 cells, 3H-PGD2 3.6 nM; Ki calculated from IC50
T1 sequence (Q9Y5Y4 1-395): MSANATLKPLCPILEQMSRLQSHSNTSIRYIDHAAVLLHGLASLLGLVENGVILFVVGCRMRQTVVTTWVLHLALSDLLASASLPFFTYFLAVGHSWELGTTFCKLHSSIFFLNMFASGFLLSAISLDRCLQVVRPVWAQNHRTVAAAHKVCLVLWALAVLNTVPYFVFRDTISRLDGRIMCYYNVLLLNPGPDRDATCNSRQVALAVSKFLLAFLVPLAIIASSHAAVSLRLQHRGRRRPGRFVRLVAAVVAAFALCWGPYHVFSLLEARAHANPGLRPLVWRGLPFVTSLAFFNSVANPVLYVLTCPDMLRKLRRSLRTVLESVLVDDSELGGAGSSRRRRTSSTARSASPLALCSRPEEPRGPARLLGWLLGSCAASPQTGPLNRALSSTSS
Procedure: A CRTH2 binding assay was developed to measure the ability of compounds to inhibit the binding of PGD2 to human CRTH2 using a scintillation proximity assay.
Membranes containing hCRTH2 receptors were prepared from 293EBNA-hCRTH2 cells (a 293EBNA cell line stably expressing human CRTH2). The cells were grown to confluency, harvested and washed with PBS. The cells were resuspended in 10 mM Hepes pH 7.4, 1 mM EDTA and protease inhibitors and incubated for 30 min on ice. The cells were homogenized and centrifuged for 10 min at 1000×g. The supernate was centrifuged for 30 min at 100,000×g and the membrane pellet was then resuspended in 10 mM Hepes pH 7.4 and 1 mM EDTA. The protein concentration of the membrane preparation was determined by Bradford assay (Bio-Rad).
The ability of compounds to inhibit the interaction of PGD2 to human CRTH2 was determined at seven compound concentrations. Compounds were serially diluted in DMSO then diluted into CRTH2 buffer (10 mM Hepes pH 7.4, 1 mM EDTA, 10 mM MnCl2) to six times the final desired concentration. 20 μL of the diluted compounds were transferred into non-surface binding 96-well plates (Corning). Each concentration was done in triplicate. In addition to test compounds, each plate contained 12 control wells. Six of these wells contained 20 μL of CRTH2 buffer. These wells were used to measure total binding. Six wells contained 20 μL of CRTH2 buffer plus 1.5 mM indomethacin. These wells were used to measure non-specific binding. Next, 293EBNA-hCRTH2 membranes were resuspended in CRTH2 buffer with glycerol (10 mM Hepes pH 7.4, 1 mM EDTA, 10 mM MnCl2, 25% glycerol) so that the final concentration was approximately 20 μg/100 μL. Polylysine-coated yttrium silicate SPA beads (Amersham) were added to the membrane mix to a concentration of 0.4 mg/100 μL and finally ^3H-PGD2 was added to the membrane/SPA bead mix to 3.6 nM. 100 μL of the membrane/SPA bead/^3H-PGD2 mix was added to each well of the non-surface binding plates containing the diluted compound or controls. The plates were incubated for 2 hours at room temperature with shaking and then the plates were counted on a Microbeta scintillation counter (Perkin Elmer) for 1 min per well.
IC50 values were determined from the experimental results by nonlinear regression using Prism 4.0 software. The IC50 values were then used in conjunction with the Kd for hCRTH2 and the ^3H-PGD2 concentration used in the experiment to calculate the Ki for each compound.

SMILES | Ki
CCCc1nc2cc(NS(=O)(=O)c3ccc(F)cc3)ccc2n1CC(=O)O [Example 1, [5-(4-Fluoro-benzenesulfonylamino)-2-propyl-benzoimidazol-1-yl]-acetic acid] | < 1 µM
CCCC(C)c1nc2cc(NS(=O)(=O)c3ccc(F)cc3)ccc2n1CC(=O)O (stereo not drawn) [Example 2, [5-(4-Fluoro-benzenesulfonylamino)-2-(1-methyl-butyl)-benzoimidazol-1-yl]-acetic acid] | < 1 µM
CCc1nc2cc(NS(=O)(=O)c3ccc(F)cc3)ccc2n1CC(=O)O [Example 3, [2-Ethyl-5-(4-fluoro-benzenesulfonylamino)-benzoimidazol-1-yl]-acetic acid] | < 1 µM
CC(C)=CCCC(C)c1nc2cc(NS(=O)(=O)c3ccc(F)cc3)ccc2n1CC(=O)O (stereo not drawn) [Example 4, [2-(1,5-Dimethyl-hex-4-enyl)-5-(4-fluoro-benzenesulfonylamino)-benzoimidazol-1-yl]-acetic acid] | < 10 µM
CSCCc1nc2cc(NS(=O)(=O)c3ccc(F)cc3)ccc2n1CC(=O)O [Example 5, [5-(4-Fluoro-benzenesulfonylamino)-2-(2-methylsulfanyl-ethyl)-benzoimidazol-1-yl]-acetic acid] | < 10 µM
CC/C=C/c1nc2cc(NS(=O)(=O)c3ccc(F)cc3)ccc2n1CC(=O)O [Example 6, [2-But-1-enyl-5-(4-fluoro-benzenesulfonylamino)-benzoimidazol-1-yl]-acetic acid] | < 10 µM
CC(C)Cc1nc2cc(NS(=O)(=O)c3ccc(F)cc3)ccc2n1CC(=O)O [Example 7, [5-(4-Fluoro-benzenesulfonylamino)-2-isobutyl-benzoimidazol-1-yl]-acetic acid] | < 10 µM
CC(Cc1nc2cc(NS(=O)(=O)c3ccc(F)cc3)ccc2n1CC(=O)O)CC(C)(C)C (stereo not drawn) [Example 8, [5-(4-Fluoro-benzenesulfonylamino)-2-(2,4,4-trimethyl-pentyl)-benzoimidazol-1-yl]-acetic acid] | > 10 µM
CCCCCc1nc2cc(NS(=O)(=O)c3ccc(F)cc3)ccc2n1CC(=O)O [Example 9, [5-(4-Fluoro-benzenesulfonylamino)-2-pentyl-benzoimidazol-1-yl]-acetic acid] | > 10 µM
CCCCC(CC)c1nc2cc(NS(=O)(=O)c3ccc(F)cc3)ccc2n1CC(=O)O (stereo not drawn) [Example 10, [2-(1-Ethyl-pentyl)-5-(4-fluoro-benzenesulfonylamino)-benzoimidazol-1-yl]-acetic acid] | > 10 µM
C=CCOC(=O)NCCc1nc2cc(NS(=O)(=O)c3ccc(F)cc3)ccc2n1CC(=O)O [Example 11, [2-(2-Allyloxycarbonylamino-ethyl)-5-(4-fluoro-benzenesulfonylamino)-benzoimidazol-1-yl]-acetic acid] | < 10 µM
CCCCc1nc2cc(NS(=O)(=O)c3ccc(F)cc3)ccc2n1CC(=O)O [Example 12, [2-Butyl-5-(4-fluoro-benzenesulfonylamino)-benzoimidazol-1-yl]-acetic acid] | < 1 µM
CC(C)c1nc2cc(NS(=O)(=O)c3ccc(F)cc3)ccc2n1CC(=O)O [Example 13, [5-(4-Fluoro-benzenesulfonylamino)-2-isopropyl-benzoimidazol-1-yl]-acetic acid] | < 1 µM
CCCCc1nc2cc(N(C)S(=O)(=O)c3ccc(F)cc3)ccc2n1CC(=O)O [Example 17, {2-Butyl-5-[(4-fluoro-benzenesulfonyl)-methyl-amino]-benzoimidazol-1-yl}-acetic acid] | < 1 µM
CCCc1nc2cc(N(C(C)C)S(=O)(=O)c3ccc(F)cc3)ccc2n1CC(=O)O [Example 21, {5-[(4-Fluoro-benzenesulfonyl)-isopropyl-amino]-2-propyl-benzoimidazol-1-yl}-acetic acid] | < 0.1 µM
CCCc1nc2cc(NC(=O)OC(C)(C)C)ccc2n1CC(=O)O [Example 25, (5-tert-Butoxycarbonylamino-2-propyl-benzoimidazol-1-yl)-acetic acid] | < 10 µM
CCCc1nc2cc(N3C(=O)c4ccccc4S3(=O)=O)ccc2n1CC(=O)O [Example 26, [2-Propyl-5-(1,1,3-trioxo-1,3-dihydro-1λ^6-benzo[d]isothiazol-2-yl)-benzoimidazol-1-yl]-acetic acid] | < 10 µM
CCCc1nc2cc(N(Cc3ccc(F)cc3)C(=O)COC)ccc2n1CC(=O)O [Example 30, {5-[(4-Fluoro-benzyl)-(2-methoxy-acetyl)-amino]-2-propyl-benzoimidazol-1-yl}-acetic acid] | < 1 µM

Results, then the compound that gave them:

Ki | SMILES
< 0.1 µM | CCCc1nc2cc(N(Cc3ccccc3)S(=O)(=O)c3ccc(F)cc3)ccc2n1CC(=O)O [Example 14, {5-[Benzyl-(4-fluoro-benzenesulfonyl)-amino]-2-propyl-benzoimidazol-1-yl}-acetic acid]
< 1 µM | CCCCc1nc2cc(N(Cc3ccccc3)S(=O)(=O)c3ccc(F)cc3)ccc2n1CC(=O)O [Example 15, {5-[Benzyl-(4-fluoro-benzenesulfonyl)-amino]-2-butyl-benzoimidazol-1-yl}-acetic acid]
< 1 µM | CC(C)c1nc2cc(N(Cc3ccccc3)S(=O)(=O)c3ccc(F)cc3)ccc2n1CC(=O)O [Example 16, {5-[Benzyl-(4-fluoro-benzenesulfonyl)-amino]-2-isopropyl-benzoimidazol-1-yl}-acetic acid]
< 1 µM | CCCc1nc2cc(N(CC(=O)OCC)S(=O)(=O)c3ccc(F)cc3)ccc2n1CC(=O)O [Example 18, {5-[Ethoxycarbonylmethyl-(4-fluoro-benzenesulfonyl)-amino]-2-propyl-benzoimidazol-1-yl}-acetic acid]
< 0.1 µM | CCCc1nc2cc(N(Cc3ccc(F)cc3)S(=O)(=O)c3ccc(F)cc3)ccc2n1CC(=O)O [Example 19, {5-[(4-Fluoro-benzenesulfonyl)-(4-fluoro-benzyl)-amino]-2-propyl-benzoimidazol-1-yl}-acetic acid]
< 0.1 µM | CCCc1nc2cc(N(CCC(C)C)S(=O)(=O)c3ccc(F)cc3)ccc2n1CC(=O)O [Example 20, {5-[(4-Fluoro-benzenesulfonyl)-(3-methyl-butyl)-amino]-2-propyl-benzoimidazol-1-yl}-acetic acid]
< 1 µM | CCCc1nc2cc(N(Cc3csc(C)n3)S(=O)(=O)c3ccc(F)cc3)ccc2n1CC(=O)O [Example 22, {5-[(4-Fluoro-benzenesulfonyl)-(2-methyl-thiazol-4-ylmethyl)-amino]-2-propyl-benzoimidazol-1-yl}-acetic acid]
< 0.1 µM | CCCc1nc2cc(N(CC3COc4ccccc4O3)S(=O)(=O)c3ccc(F)cc3)ccc2n1CC(=O)O (stereo not drawn) [Example 23, {5-[(2,3 -Dihydro-benzo[1,4]dioxin-2-ylmethyl)-(4-fluoro-benzenesulfonyl)-amino]-2-propyl-benzoimidazol-1-yl}-acetic acid]
< 1 µM | CCCc1nc2cc(N(Cc3c(C)noc3C)S(=O)(=O)c3ccc(F)cc3)ccc2n1CC(=O)O [Example 24, {5-[(3,5-Dimethyl-isoxazol-4-ylmethyl)-(4-fluoro-benzenesulfonyl)-amino]-2-propyl-benzoimidazol-1-yl}-acetic acid]
< 1 µM | CCCc1nc2cc(N(Cc3ccc(F)cc3)S(=O)(=O)c3cccc(F)c3)ccc2n1CC(=O)O [Example 27, {5-[(3-Fluoro-benzenesulfonyl)-(4-fluoro-benzyl)-amino]-2-propyl-benzoimidazol-1-yl}-acetic acid]
< 1 µM | CCCc1nc2cc(N(Cc3ccc(F)cc3)S(=O)(=O)c3ccccc3F)ccc2n1CC(=O)O [Example 28, {5-[(2-Fluoro-benzenesulfonyl)-(4-fluoro-benzyl)-amino]-2-propyl-benzoimidazol-1-yl}-acetic acid]
< 1 µM | CCCc1nc2cc(N(Cc3ccc(F)cc3)S(=O)(=O)CC)ccc2n1CC(=O)O [Example 29, {5-[Ethanesulfonyl-(4-fluoro-benzyl)-amino]-2-propyl-benzoimidazol-1-yl}-acetic acid]
